In patent US8163728B2, “Pyrazoles” (Hoffmann-La Roche Inc., priority 2009, dated 2012):
pKi: −log10 of the molar value.

Biological target: T1, GABA A α5 (Homo sapiens, UniProt P18507+P31644)
T1 construct: expressed in transfected cells; host or cells: HEK293 cells, transiently transfected; membranes prepared from cell pellets
Test: [3H]flumazenil competition binding, human GABA A α5β3γ2 receptors in HEK293 cell membranes
Conditions: human receptor α5β3γ2 transiently transfected in HEK293; 0.5 nM [3H]flumazenil; 1 hour at 4° C.; means of two determinations; read-out: hKi GABA A α5
Outline: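 Competition with [3H]flumazenil for binding to membranes of HEK293 cells transiently expressing human α5β3γ2, in Krebs-tris buffer pH 7.5. Incubated to equilibrium 1 h at 4 °C, filtered and scintillation-counted; Ki values are means of two determinations.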

pKi	SMILES
7.53	Cc1onc(-c2ccc(F)cn2)c1COc1cc(C(=O)NN(C)C)n(C)n1 [Example 82, 5-[3-(5-Fluoro-pyridin-2-yl)-5-methyl-isoxazol-4-ylmethoxy]-2-methyl-2H-pyrazole-3-carboxylic acid N′,N′-dimethyl-hydrazide]
7.96	Cc1onc(-c2ccc(F)cn2)c1COc1cc(C(=O)NCCO)n(C)n1 [Example 83, 5-[3-(5-Fluoro-pyridin-2-yl)-5-methyl-isoxazol-4-ylmethoxy]-2-methyl-2H-pyrazole-3-carboxylic acid (2-hydroxy-ethyl)-amide]
8.46	Cc1onc(-c2ccc(F)cn2)c1COc1cc(C(=O)NC2CCOCC2)n(C)n1 [Example 84, 5-[3-(5-Fluoro-pyridin-2-yl)-5-methyl-isoxazol-4-ylmethoxy]-2-methyl-2H-pyrazole-3-carboxylic acid (tetrahydro-pyran-4-yl)-amide]
7.56	CCCCc1noc(C)c1COc1cc(C(=O)NCCO)n(C)n1 [Example 85, 5-(3-Butyl-5-methyl-isoxazol-4-ylmethoxy)-2-methyl-2H-pyrazole-3-carboxylic acid (2-hydroxy-ethyl)-amide]
7.41	CCCCc1noc(C)c1COc1cc(C(=O)NC(C)C)n(C)n1 [Example 86, 5-(3-Butyl-5-methyl-isoxazol-4-ylmethoxy)-2-methyl-2H-pyrazole-3-carboxylic acid isopropylamide]
8.06	CCCCc1noc(C)c1COc1cc(C(=O)NC2CCOCC2)n(C)n1 [Example 88, 5-(3-Butyl-5-methyl-isoxazol-4-ylmethoxy)-2-methyl-2H-pyrazole-3-carboxylic acid (tetra-hydro-pyran-4-yl)-amide]
7.61	Cc1onc(C2CCOCC2)c1COc1cc(C(=O)NC2CCOCC2)n(C)n1 [Example 90, 2-Methyl-5-[5-methyl-3-(tetrahydro-pyran-4-yl)-isoxazol-4-ylmethoxy]-2H-pyrazole-3-carboxylic acid (tetrahydro-pyran-4-yl)-amide]
9.00	Cn1nc(OCc2c(-c3ccc(F)cc3)noc2CO)cc1C(=O)NC1CCOCC1 [Example 91, 5-[3-(4-Fluoro-phenyl)-5-hydroxymethyl-isoxazol-4-ylmethoxy]-2-methyl-2H-pyrazole-3-carboxylic acid (tetrahydro-pyran-4-yl)-amide]
8.02	CC(C)NC(=O)c1cc(OCc2c(-c3ccc(F)cc3)noc2CO)nn1C [Example 92, 5-[3-(4-Fluoro-phenyl)-5-hydroxymethyl-isoxazol-4-ylmethoxy]-2-methyl-2H-pyrazole-3-carboxylic acid isopropylamide]
7.83	Cn1nc(OCc2c(-c3ccc(F)cc3)noc2CO)cc1C(N)=O [Example 93, 5-[3-(4-Fluoro-phenyl)-5-hydroxymethyl-isoxazol-4-ylmethoxy]-2-methyl-2H-pyrazole-3-carboxylic acid amide]
8.10	Cn1nc(OCc2c(-c3ccc(F)cc3)noc2CO)cc1C(=O)NCC(F)(F)C(F)(F)F [Example 95, 5-[3-(4-Fluoro-phenyl)-5-hydroxymethyl-isoxazol-4-ylmethoxy]-2-methyl-2H-pyrazole-3-carboxylic acid (2,2,3,3,3-pentafluoro-propyl)-amide]
7.37	Cn1ccc(NC(=O)c2cc(OCc3c(-c4ccc(F)cc4)noc3CO)nn2C)n1 [Example 96, 5-[3-(4-Fluoro-phenyl)-5-hydroxymethyl-isoxazol-4-ylmethoxy]-2-methyl-2H-pyrazole-3-carboxylic acid (1-methyl-1H-pyrazol-3-yl)-amide]
7.62	Cn1nc(OCc2c(-c3ccc(F)cc3)noc2CO)cc1C(=O)N1CC2(COC2)C1 [Example 99, {5-[3-(4-Fluoro-phenyl)-5-hydroxymethyl-isoxazol-4-ylmethoxy]-2-methyl-2H-pyrazol-3-yl}-(2-oxa-6-aza-spiro[3.3]hept-6-yl)-methanone]
8.24	CC(C)NC(=O)c1cc(OCc2c(-c3ccc(Cl)cc3)noc2CO)nn1C [Example 100, 5-[3-(4-Chloro-phenyl)-5-hydroxymethyl-isoxazol-4-ylmethoxy]-2-methyl-2H-pyrazole-3-carboxylic acid isopropylamide]
9.05	Cn1nc(OCc2c(-c3ccc(Cl)cc3)noc2CO)cc1C(=O)NC1CCOCC1 [Example 101, 5-[3-(4-Chloro-phenyl)-5-hydroxymethyl-isoxazol-4-ylmethoxy]-2-methyl-2H-pyrazole-3-carboxylic acid (tetrahydro-pyran-4-yl)-amide]
7.90	Cn1nc(OCc2c(-c3ccc(Cl)cc3)noc2CO)cc1C(N)=O [Example 102, 5-[3-(4-Chloro-phenyl)-5-hydroxymethyl-isoxazol-4-ylmethoxy]-2-methyl-2H-pyrazole-3-carboxylic acid amide]
8.24	Cn1nc(OCc2c(-c3ccc(Cl)cc3)noc2CO)cc1C(=O)NCC(F)(F)F [Example 103, 5-[3-(4-Chloro-phenyl)-5-hydroxymethyl-isoxazol-4-ylmethoxy]-2-methyl-2H-pyrazole-3-carboxylic acid (2,2,2-trifluoro-ethyl)-amide]

pKi	SMILES
8.18	Cn1nc(OCc2c(-c3ccc(Cl)cc3)noc2CO)cc1C(=O)NCC(F)(F)C(F)(F)F [Example 104, 5-[3-(4-Chloro-phenyl)-5-hydroxymethyl-isoxazol-4-ylmethoxy]-2-methyl-2H-pyrazole-3-carboxylic acid (2,2,3,3,3-pentafluoro-propyl)-amide]
8.27	Cn1nc(OCc2c(-c3ccc(Cl)cc3)noc2CO)cc1C(=O)NC1CC1 [Example 105, 5-[3-(4-Chloro-phenyl)-5-hydroxymethyl-isoxazol-4-ylmethoxy]-2-methyl-2H-pyrazole-3-carboxylic acid cyclopropylamide]
7.75	Cn1nc(OCc2c(-c3ccc(Cl)cc3)noc2CO)cc1C(=O)NC(C)(C)CO [Example 107, 5-[3-(4-Chloro-phenyl)-5-hydroxymethyl-isoxazol-4-ylmethoxy]-2-methyl-2H-pyrazole-3-carboxylic acid (2-hydroxy-1,1-dimethyl-ethyl)-amide]
8.51	Cn1nc(OCc2c(-c3ccc(Cl)cc3)noc2CO)cc1C(=O)NC1(C)COC1 [Example 108, 5-[3-(4-Chloro-phenyl)-5-hydroxymethyl-isoxazol-4-ylmethoxy]-2-methyl-2H-pyrazole-3-carboxylic acid (3-methyl-oxetan-3-yl)-amide]
8.05	Cn1nc(OCc2c(-c3ccc(Cl)cc3)noc2CO)cc1C(=O)N1CC2(COC2)C1 [Example 109, {5-[3-(4-Chloro-phenyl)-5-hydroxymethyl-isoxazol-4-ylmethoxy]-2-methyl-2H-pyrazol-3-yl}-(2-oxa-6-aza-spiro[3.3]hept-6-yl)-methanone]
7.28	Cn1nc(OCc2c(-c3ccc(Cl)cc3)noc2CO)cc1C(=O)N1CCC(F)(F)CC1 [Example 111, {5-[3-(4-Chloro-phenyl)-5-hydroxymethyl-isoxazol-4-ylmethoxy]-2-methyl-2H-pyrazol-3-yl}-(4,4-difluoro-piperidin-1-yl)-methanone]
7.35	CCCCc1noc(CO)c1COc1cc(C(=O)NCC(F)(F)F)n(C)n1 [Example 112, 5-(3-Butyl-5-hydroxymethyl-isoxazol-4-ylmethoxy)-2-methyl-2H-pyrazole-3-carboxylic acid (2,2,2-trifluoro-ethyl)-amide]
7.40	CCCCc1noc(CO)c1COc1cc(C(=O)NC2CCC2)n(C)n1 [Example 113, 5-(3-Butyl-5-hydroxymethyl-isoxazol-4-ylmethoxy)-2-methyl-2H-pyrazole-3-carboxylic acid cyclobutylamide]
7.69	Cc1onc(-c2ccccn2)c1COc1cc(C(=O)NC(C)C)nn1C [Example 115, 1-Methyl-5-(5-methyl-3-pyridin-2-yl-isoxazol-4-ylmethoxy)-1H-pyrazole-3-carboxylic acid isopropylamide]
7.74	Cc1onc(-c2ccccn2)c1COc1cc(C(=O)NC2CCOCC2)nn1C [Example 116, 1-Methyl-5-(5-methyl-3-pyridin-2-yl-isoxazol-4-ylmethoxy)-1H-pyrazole-3-carboxylic acid (tetrahydro-pyran-4-yl)-amide]
8.17	Cc1onc(-c2ccc(F)cn2)c1COc1cc(C(=O)N[C@@H](C)CO)nn1C [Example 117, 5-[3-(5-Fluoro-pyridin-2-yl)-5-methyl-isoxazol-4-ylmethoxy]-1-methyl-1H-pyrazole-3-carboxylic acid ((S)-2-hydroxy-1-methyl-ethyl)-amide]
8.29	Cc1onc(-c2ccccc2)c1/C=C/c1cc(C(=O)NC(C)C)[nH]n1 [Example 118, 5-[(E)-2-(5-Methyl-3-phenyl-isoxazol-4-yl)-vinyl]-2H-pyrazole-3-carboxylic acid iso-propylamide]
7.69	Cc1onc(-c2ccccc2)c1/C=C\c1cc(C(=O)NC(C)C)[nH]n1 [Example 119, 5-[(Z)-2-(5-Methyl-3-phenyl-isoxazol-4-yl)-vinyl]-2H-pyrazole-3-carboxylic acid iso-propylamide]
7.55	Cc1onc(-c2ccc(F)cc2)c1/C=C\c1cc(C(=O)NC(C)C)n(C)n1 [Example 120, 5-{(Z)-2-[3-(4-Fluoro-phenyl)-5-methyl-isoxazol-4-yl]-vinyl}-2-methyl-2H-pyrazole-3-carboxylic acid isopropylamide]
7.30	Cc1onc(-c2ccc(F)cc2)c1/C=C\c1cc(C(=O)NC(C)CO)n(C)n1 (stereo not drawn) [Example 121, 5-{(Z)-2-[3-(4-Fluoro-phenyl)-5-methyl-isoxazol-4-yl]vinyl}-2-methyl-2H-pyrazole-3-carboxylic acid (2-hydroxy-1-methyl-ethyl)-amide]
8.80	Cc1onc(-c2ccc(F)cc2)c1/C=C/c1cc(C(=O)NC(C)C)n(C)n1 [Example 122, 5-{(E)-2-[3-(4-Fluoro-phenyl)-5-methyl-isoxazol-4-yl]vinyl}-2-methyl-2H-pyrazole-3-carboxylic acid isopropylamide]
